Here are results for three substances from US6998259B1, “Enzymatic treatment of whey proteins for the production of antihypertensive peptides and the resulting products” (Davisco Foods International, priority 1999, dated 2006).

Read-outs that look alike come from different tables or passages of the source. No end group written: not given here.

The target of test [1] is T1, Angiotensin Converting Enzyme (from rabbit lung) (Oryctolagus cuniculus, UniProt P12822).
T1 construct: Angiotensin Converting Enzyme (from rabbit lung); purchased Sigma Chemical Co. (St. Louis, USA); host or cells: rabbit lung tissue
T1 sequence (P12822 34-1310): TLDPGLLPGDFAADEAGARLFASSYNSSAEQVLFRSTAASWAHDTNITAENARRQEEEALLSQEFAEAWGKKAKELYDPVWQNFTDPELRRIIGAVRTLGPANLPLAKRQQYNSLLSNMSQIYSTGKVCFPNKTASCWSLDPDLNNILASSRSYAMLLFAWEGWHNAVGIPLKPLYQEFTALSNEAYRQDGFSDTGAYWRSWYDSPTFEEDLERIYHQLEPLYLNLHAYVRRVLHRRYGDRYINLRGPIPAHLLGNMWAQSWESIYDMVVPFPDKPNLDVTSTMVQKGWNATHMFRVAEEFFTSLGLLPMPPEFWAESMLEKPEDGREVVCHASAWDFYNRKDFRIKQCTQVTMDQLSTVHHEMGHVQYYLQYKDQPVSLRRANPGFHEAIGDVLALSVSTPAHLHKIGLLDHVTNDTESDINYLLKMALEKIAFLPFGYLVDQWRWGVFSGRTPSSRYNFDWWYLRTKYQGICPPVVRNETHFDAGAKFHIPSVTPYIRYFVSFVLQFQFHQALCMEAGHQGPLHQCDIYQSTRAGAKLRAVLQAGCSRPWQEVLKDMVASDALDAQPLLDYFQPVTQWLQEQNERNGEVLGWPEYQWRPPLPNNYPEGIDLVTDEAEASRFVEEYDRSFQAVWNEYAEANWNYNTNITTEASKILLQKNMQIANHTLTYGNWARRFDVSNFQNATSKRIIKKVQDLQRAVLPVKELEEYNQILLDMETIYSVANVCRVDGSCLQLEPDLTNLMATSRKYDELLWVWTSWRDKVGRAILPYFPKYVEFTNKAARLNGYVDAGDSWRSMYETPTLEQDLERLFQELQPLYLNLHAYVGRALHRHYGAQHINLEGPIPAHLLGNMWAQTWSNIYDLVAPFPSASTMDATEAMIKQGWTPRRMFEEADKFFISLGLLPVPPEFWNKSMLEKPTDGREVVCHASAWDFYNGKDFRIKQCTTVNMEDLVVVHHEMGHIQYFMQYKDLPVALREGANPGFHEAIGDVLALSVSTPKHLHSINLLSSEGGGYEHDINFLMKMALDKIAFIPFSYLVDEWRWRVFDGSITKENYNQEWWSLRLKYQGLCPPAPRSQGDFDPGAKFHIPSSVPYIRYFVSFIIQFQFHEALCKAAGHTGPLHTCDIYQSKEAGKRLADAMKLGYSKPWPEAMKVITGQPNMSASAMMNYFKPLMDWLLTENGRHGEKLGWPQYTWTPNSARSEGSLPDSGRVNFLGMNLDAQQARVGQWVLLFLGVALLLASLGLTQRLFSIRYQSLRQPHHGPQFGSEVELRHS
As to the kind of experiment: ACE-inhibitory activity, in vitro spectrophotometric assay (Cushman and Cheung, HHL substrate). Format: biochemical. From the text:
Whey protein hydrolysate WPH 917 (84.5% protein w/w) was obtained from New Zealand Milk Product Inc. (Santa Rosa, USA). Whey protein hydrolysate LE80GF (80.0% w/w) was obtained from DMV International (New-York, USA). Whey protein isolate (BiPRO™) and β-lactoglobulin-rich product were obtained from Davisco Foods International (Le Sueur, Minn., USA). Purified peptidic sequence Ala-Leu-Pro-Met-His-Ile-Arg modelling the peptide f-142–148 from β-1g was chemically-synthetized by the Service de séquence de peptides de l'Est du Québec (Ste-Foy, Qc, Canada). HEPES Sodium salt, Hippuryl-L-Histidyl-L-Leucine, and Angiotensin Converting Enzyme (from rabbit lung) were purchased from Sigma Chemical Co. (St. Louis, USA). All other products used were analytical grade.
The ACE-inhibitory activity was measured in vitro by a spectrophotometric assay according to the method of Cushman and Cheung. (Cushman, D. N., Cheung, H. S. 1971 Spectrophotometric assay and properties of the angiotensin converting enzyme of rabbit lung. Biochemical Pharmacology, 20: 1637–1648.) According to this method, hippuric acid is liberated from hippuryl-L-histidyl-L-leucine (HHL) by the enzymatic reaction of ACE. After extraction by ethyl acetate and removal of ethyl acetate by heat evaporation, hippuric acid is dissolved in deionized water.
Inhibitory activity was calculated according to the following equation: Inhibitory activity (%)=[(Acontrol−Asample)/(Acontrol−Ablank)]×[…] 1 where A represents absorbance. A plot of the inhibitory activity (%) versus log10 of sample concentration (mg powder ml^−1) was generated using 6 different concentrations of samples for BIPRO™, AS-601 (BiPRO™β-1g), commercial hydrolysates (WPH 917, LE80GF) and of synthetic peptide (f142–148) from β-1g. Each concentration was tested in triplicate and the mean value was plotted in the curves. The IC50 value (expressed in terms of mg powder ml^−1, defined as the concentration of inhibitor which gives 50% inhibition of ACE activity, was calculated using the linear regression equations of the curves.

The target of the next test is ACE (Homo sapiens, UniProt P12821). To be noted: cited from earlier work.
The test system of test [2] is spontaneously hypertensive rats. To be noted: among nine identified peptide sequences; cited from earlier work.
Setting [3] is: inhibitory activity (%) versus sample concentration (mg powder ml^−1).

ACE, sequence (P12821 30-1306, species assumed): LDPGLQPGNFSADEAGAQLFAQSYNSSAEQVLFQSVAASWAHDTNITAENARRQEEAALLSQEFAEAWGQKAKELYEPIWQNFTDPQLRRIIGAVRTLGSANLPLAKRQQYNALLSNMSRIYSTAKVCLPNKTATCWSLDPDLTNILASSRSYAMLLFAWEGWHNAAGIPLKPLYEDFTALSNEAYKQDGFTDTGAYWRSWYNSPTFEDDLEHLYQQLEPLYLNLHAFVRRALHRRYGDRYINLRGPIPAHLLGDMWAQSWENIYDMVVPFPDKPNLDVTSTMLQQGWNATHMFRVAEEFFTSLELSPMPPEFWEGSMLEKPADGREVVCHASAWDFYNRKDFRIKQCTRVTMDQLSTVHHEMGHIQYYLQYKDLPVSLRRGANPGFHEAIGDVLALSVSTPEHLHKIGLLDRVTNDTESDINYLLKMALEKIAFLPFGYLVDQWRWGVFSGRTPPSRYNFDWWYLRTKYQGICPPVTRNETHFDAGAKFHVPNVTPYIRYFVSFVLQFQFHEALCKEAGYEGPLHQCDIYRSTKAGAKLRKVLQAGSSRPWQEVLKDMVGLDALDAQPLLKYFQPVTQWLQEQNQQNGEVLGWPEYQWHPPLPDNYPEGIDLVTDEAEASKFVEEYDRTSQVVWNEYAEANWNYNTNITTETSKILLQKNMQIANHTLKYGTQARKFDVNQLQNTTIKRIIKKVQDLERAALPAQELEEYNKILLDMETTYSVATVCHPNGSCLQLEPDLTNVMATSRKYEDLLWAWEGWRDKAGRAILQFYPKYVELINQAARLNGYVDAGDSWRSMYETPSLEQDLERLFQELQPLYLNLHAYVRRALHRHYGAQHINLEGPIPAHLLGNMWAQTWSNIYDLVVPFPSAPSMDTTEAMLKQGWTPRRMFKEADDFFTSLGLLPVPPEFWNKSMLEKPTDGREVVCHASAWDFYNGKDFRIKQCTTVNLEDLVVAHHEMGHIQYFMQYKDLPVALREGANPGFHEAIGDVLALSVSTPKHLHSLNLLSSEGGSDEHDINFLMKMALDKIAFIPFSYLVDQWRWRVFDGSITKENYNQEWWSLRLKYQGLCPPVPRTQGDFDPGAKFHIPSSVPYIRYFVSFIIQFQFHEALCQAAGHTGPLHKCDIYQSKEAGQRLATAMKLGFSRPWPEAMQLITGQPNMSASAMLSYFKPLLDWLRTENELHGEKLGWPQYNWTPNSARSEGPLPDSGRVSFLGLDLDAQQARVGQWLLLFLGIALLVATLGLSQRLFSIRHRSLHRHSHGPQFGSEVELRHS

Regarding “ALPMHIR [β-1 g f142–148, Ala-Leu-Pro-Met-His-Ile-Arg]”, in test [1] (setting [3]), the “Slope m of linear regression (y=m lnX+b) of the ACE-inhibitory activity curve” value is 10.35 and the “Y-intercept b of linear regression (y=m lnX+b) of the ACE-inhibitory activity curve” value stood at 84.4. Besides, in test [1] (rabbit lung ACE, HHL substrate, 37° C. for 20 min, 6 concentrations in triplicate, calculated from linear regression, read-out: IC50 (concentration of inhibitor which gives 50% inhibition of ACE activity) (converted)), the IC50 is 47.8 µM. Moreover, the IC50 at ACE (Mullally et al. 1997, read-out: IC50 (ACE inhibition)) is 42.6 µM.

Take “peptide f23–34 from xsl casein: peptide f23–34 from casein (bovine, variant B), from tryptic casein hydrolysate (FFVAPFPEVFGK; Alpha-S1-casein; UniProt P02662 38-49, looked up, fragment)”: the IC50 in the test with ACE (Maruyama and Suzuki, tryptic casein hydrolysate peptide, read-out: IC50 (concentration needed to inhibit 50% ACE activity)) was 77 µM.

As to “β-lactoglobulin (f78–80): peptide fragment 78–80 of β-lactoglobulin from proteinase K digestion of cheese whey protein (Abubakar et al.) (IPA; UniProt P02754 94-96, looked up, fragment)”, the antihypertensive activity result in test [2] is given as “strongest antihypertensive activity”.
